The source of these data is article PMC8480273, “Design, synthesis, and biological evaluation of symmetrical azine derivatives as novel tyrosinase inhibitors” (BMC Chemistry, 2021).

In one series the target is tyrosinase. The note with it: cited from earlier work.
Series [1] can be described thus: MTT assay for cell viability, B16F10. In kind it is cell-based. The following applies: mouse, B16F10 melanoma cells, B16F10, 10 µM, ± SD. As to the method:
(§1) The cytotoxic activity of compound was evaluated in B16F10 cells using 3-(4,5-dimethylthiazol-2-yl)-2,5-diphenyltetrazolium bromide (MTT) assay. Cells were seeded in a 96-well plate (5 × 10^3 cells/well) and incubated at 37 °C with samples at different concentrations for 48 h. Following the treatment, cells were incubated with MTT (0.5 mg mL^−1) at 37 °C for 3 h. The MTT-containing medium was then removed, and 100 μL of DMSO was added to each well, mixed thoroughly with a 10 min shake to dissolve formazan crystals. The absorbance of each well was measured at 540 nm.

A further series deals with B16F10 melanoma cells. As to the kind of experiment: Melanin content assay. In kind it is cell-based. The note with it: B16F10, 10 µM, in comparison with the control. The procedure: B16F10 cells were seeded in six-well plates (1.0 × 10^5 cells/well). After 24 h, the medium was substituted by a fresh one and treated with 3f, and incubated for 48 h. Then, cells were treated with 100 nM α -MSH. […] After incubation cells were washed twice with PBS and harvested using […] trypsin, then dissolved in 300 μL of 1 N NaOH/10% DMSO buffer and boiled for 2 h at 80 °C to solubilize the melanin. The absorbance of the supernatant was measured at 470 nm in a microplate reader. The obtained results were normalized using total protein content.

The target of a further series is T1, mushroom tyrosinase (Agaricus bisporus, UniProt C7FF04).
T1 construct: purchased Sigma Chemical Co. (St. Louis, MO, USA)
T1 sequence (C7FF04 1-392): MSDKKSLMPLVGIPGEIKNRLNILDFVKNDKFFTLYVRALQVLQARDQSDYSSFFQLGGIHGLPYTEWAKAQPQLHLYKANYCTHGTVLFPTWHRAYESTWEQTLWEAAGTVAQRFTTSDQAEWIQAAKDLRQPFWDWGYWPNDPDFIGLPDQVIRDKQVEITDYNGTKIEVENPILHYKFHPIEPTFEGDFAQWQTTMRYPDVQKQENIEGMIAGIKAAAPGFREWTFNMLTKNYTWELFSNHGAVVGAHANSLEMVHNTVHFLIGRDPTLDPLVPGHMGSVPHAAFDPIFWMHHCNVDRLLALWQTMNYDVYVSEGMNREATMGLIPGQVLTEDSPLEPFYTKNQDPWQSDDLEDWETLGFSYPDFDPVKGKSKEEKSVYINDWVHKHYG
Nature of the series: Determination of the inhibition type (Lineweaver–Burk kinetics). In kind it is biochemical. The following applies: Lineweaver–Burk plot, L-DOPA substrate. As to the method: A series of experiments were performed to determine the inhibition kinetics of 3f. The inhibitor concentrations were: 0, 8, 16 μM. Substrate (L-DOPA) concentrations were (0.1, 0.25, 0.5, 0.75 and 1.5 mM) in kinetic studies. Pre-incubation and measurement time was the same as discussed in the mushroom tyrosinase inhibition assay protocol. Maximum initial velocity was determined from the initial linear portion of absorbance up to 10 min after addition of L-DOPA with 1 min interval. The Michaelis constant (Km) and the maximal velocity (Vmax) of the tyrosinase activity were determined by the Lineweaver–Burk plot at various concentrations of L-DOPA as a substrate. The inhibition type of the enzyme was assayed by Lineweaver–Burk plots of the inverse of velocities (1/V) versus the inverse of substrate concentrations 1/[S] mM^−1.

Series [2] in a line: MTT assay for cell viability, A375. In kind it is cell-based. The note with it: human, A375 melanoma cells, A375, 10 µM, ± SD. The procedure:
The A375 cell line is derived from a human skin melanoma carrying two mutant genes, B-RAF and CDKN2 which are associated with melanoma of sun-damaged skin [48]. To determine the cytotoxicity of 3f in A375 melanoma cell lines, MTT studies were conducted.
as §1

Like-named read-outs stand apart in the source and are kept apart here.

As for `Oc1ccc(/C=C/c2cc(O)cc(O)c2)cc1` [Resveratrol, 3,5,4′-trihydroxy-trans-stilbene], the IC50 at tyrosinase (Fig. 1, stilbenoid) was 1 to 9 µM; at tyrosinase (resveratrol) it was 26.6 µM. Take Quinazoline: at tyrosinase (Fig. 1, quinazoline), the IC50 is 0.46 µM.

As to `O=C1c2c(O)cc(O)cc2O[C@H](c2ccc(O)cc2O)[C@H]1O` [Dihydromorin], the IC50 at tyrosinase (Fig. 1, flavanol) was 10.3 µM. Take Chalcone: the IC50 on tyrosinase (Fig. 1, chalcone) is 8.1 µM. Take `Oc1ccc(/C=N/c2ccccc2O)c(O)c1` [compound B]: the IC50 on tyrosinase (most potent bibenzyl compound of Oozeki et al.) is 0.37 µM. Regarding `CCOc1cc(/C=N/NC(=O)c2ccc(O)cc2)ccc1O` [D], the IC50 on tyrosinase (hydrazine-containing compound) is 9.9 µM. `O=c1c(O)c(-c2ccc(O)c(O)c2)oc2cc(O)cc(O)c12` [Quercetin]: on tyrosinase (Fig. 1, flavonol), the inhibitory constant (Ki) is 29 µM. `O=C1CC(c2ccc(O)cc2O)Oc2cc(O)cc(O)c21` (stereo not drawn) [Streppogenin]: the IC50 at tyrosinase (Fig. 1, flavanone) was 1.3 µM. Turning to `CCOc1cc(/C=N/NC(=O)c2ccc(O)c(OC)c2)ccc1O` [E], the 50% inhibitory concentration (IC50) at tyrosinase (hydrazine-containing compound) is 1.58 µM. In the case of `Oc1ccc(C=NN=Cc2ccc(O)cc2O)c(O)c1` [Compound 3f, 4,4′-(Hydrazine-1,2-diylidenebis(methaneylylidene))bis(benzene-1,3-diol)], the viability at 48 h, 10 µM in series [1] was 60.1 ± 9.82%; in series [2], above 82%. In addition, in the series with B16F10 melanoma cells, the “Melanin content (%)” value amounted to 79.58%. Further, at mushroom tyrosinase, the “Vmax and Km values in the presence of increasing concentrations of compound” value was “decreased”. Moreover, the type of inhibition entry on mushroom tyrosinase (inhibitor 0, 8, 16 μM) was “uncompetitive”.

Regarding `O=c1cc(-c2ccc(O)c(O)c2)oc2cc(O)cc(O)c12` [Luteolin], the IC50 on tyrosinase (Fig. 1, flavone) is 60 µM. For Phthalimide, the IC50 at tyrosinase (Fig. 1, phthalimide) is 26.2 µM. For `NC(=S)N/N=C/c1ccc([N+](=O)[O-])cc1` [F], the IC50 on tyrosinase (hydrazine-containing compound) is 0.05 µM.
